Experimental data taken from the NIST ThermoML archive (doi:10.1021/acs.jced.9b00424).

Key:
[1] = xn = mol fraction of the nth substance listed; conditions: x1 = 1; for viscosity: 100 kPa, Concentric cylinders viscometry; for viscosity / mass density: Liquid; for mass density: 101 kPa, Vibrating tube method; for surface tension liquid-gas: Pendant drop shape

CC(C)[C@@H]1CC[C@@H](C)C[C@H]1O (racemic) [DL-menthol]
Conditions | mass density [kg/m3] | viscosity [mPa·s]
303.15 K, 100 kPa, Metastable liquid, Concentric cylinders viscometry | – | 33.9
303.15 K, 101 kPa, Metastable liquid, Vibrating tube method | 898.2 | –
308.15 K, 100 kPa, Concentric cylinders viscometry, Liquid | – | 23.19
308.15 K, 101 kPa, Vibrating tube method, Liquid | 892.2 | –
313.15 K, 100 kPa, Concentric cylinders viscometry, Liquid | – | 16.44
313.15 K, 101 kPa, Vibrating tube method, Liquid | 886.4 | –
318.15 K, 100 kPa, Concentric cylinders viscometry, Liquid | – | 12
318.15 K, 101 kPa, Vibrating tube method, Liquid | 881 | –
323.15 K, 100 kPa, Concentric cylinders viscometry, Liquid | – | 9
323.15 K, 101 kPa, Vibrating tube method, Liquid | 875.8 | –
328.15 K, 100 kPa, Concentric cylinders viscometry, Liquid | – | 6.92
328.15 K, 101 kPa, Vibrating tube method, Liquid | 870.8 | –
333.15 K, 100 kPa, Concentric cylinders viscometry, Liquid | – | 5.43
333.15 K, 101 kPa, Vibrating tube method, Liquid | 866.2 | –
338.15 K, 100 kPa, Concentric cylinders viscometry, Liquid | – | 4.34
338.15 K, 101 kPa, Vibrating tube method, Liquid | 861.7 | –
343.15 K, 100 kPa, Concentric cylinders viscometry, Liquid | – | 3.53
343.15 K, 101 kPa, Vibrating tube method, Liquid | 857.6 | –
348.15 K, 100 kPa, Concentric cylinders viscometry, Liquid | – | 2.92
348.15 K, 101 kPa, Vibrating tube method, Liquid | 853.7 | –
353.15 K, 100 kPa, Concentric cylinders viscometry, Liquid | – | 2.446
353.15 K, 101 kPa, Vibrating tube method, Liquid | 850 | –

surface tension liquid-gas [mN/m]
Conditions | 303.79 K | 308.76 K | 314.03 K | 318.76 K | 323.45 K | 328.55 K | 333.09 K
Metastable liquid, Pendant drop shape | 21.82 | – | – | – | – | – | –
Pendant drop shape, Liquid | – | 21.35 | 20.44 | 19.91 | 19.18 | 18.76 | 18.15

CC(C)[C@@H]1CC[C@@H](C)C[C@H]1O [DL-menthol] + CCCCCCCC(=O)O
[1]
Conditions | mass density [kg/m3] | surface tension liquid-gas [mN/m] | viscosity [mPa·s]
303.15 K | 898.2 | – | 33.9
303.79 K | – | 21.82 | –
308.15 K | 892.2 | – | 23.19
308.76 K | – | 21.35 | –
313.15 K | 886.4 | – | 16.44
314.03 K | – | 20.44 | –
318.15 K | 881 | – | 12
318.76 K | – | 19.91 | –
323.15 K | 875.8 | – | 9
323.45 K | – | 19.18 | –
328.15 K | 870.8 | – | 6.92
328.55 K | – | 18.76 | –
333.09 K | – | 18.15 | –
333.15 K | 866.2 | – | 5.43
338.15 K | 861.7 | – | 4.34
343.15 K | 857.6 | – | 3.53
348.15 K | 853.7 | – | 2.92
353.15 K | 850 | – | 2.446

CCCCCCCC(=O)O [octanoic acid]
Liquid, Pendant drop shape
Conditions | surface tension liquid-gas [mN/m]
297.82 K | 30.95
302.68 K | 30.04
308.49 K | 28.56
312.93 K | 27.56
317.8 K | 26.06
322.15 K | 24.99
327.39 K | 24.46
331.72 K | 23.43

Liquid
Conditions | mass density [kg/m3] | viscosity [mPa·s]
298.15 K, 100 kPa, Concentric cylinders viscometry | – | 5.17
298.15 K, 101 kPa, Vibrating tube method | 917.2 | –
303.15 K, 100 kPa, Concentric cylinders viscometry | – | 4.54
303.15 K, 101 kPa, Vibrating tube method | 910.3 | –
308.15 K, 100 kPa, Concentric cylinders viscometry | – | 4.01
308.15 K, 101 kPa, Vibrating tube method | 903.8 | –
313.15 K, 100 kPa, Concentric cylinders viscometry | – | 3.59
313.15 K, 101 kPa, Vibrating tube method | 897.6 | –
318.15 K, 100 kPa, Concentric cylinders viscometry | – | 3.2
318.15 K, 101 kPa, Vibrating tube method | 891.7 | –
323.15 K, 100 kPa, Concentric cylinders viscometry | – | 2.88
323.15 K, 101 kPa, Vibrating tube method | 886.2 | –
328.15 K, 100 kPa, Concentric cylinders viscometry | – | 2.609
328.15 K, 101 kPa, Vibrating tube method | 880.9 | –
333.15 K, 100 kPa, Concentric cylinders viscometry | – | 2.372
333.15 K, 101 kPa, Vibrating tube method | 876 | –
338.15 K, 100 kPa, Concentric cylinders viscometry | – | 2.166
338.15 K, 101 kPa, Vibrating tube method | 871.4 | –
343.15 K, 100 kPa, Concentric cylinders viscometry | – | 1.985
343.15 K, 101 kPa, Vibrating tube method | 867.1 | –
348.15 K, 100 kPa, Concentric cylinders viscometry | – | 1.826
348.15 K, 101 kPa, Vibrating tube method | 863 | –
353.15 K, 100 kPa, Concentric cylinders viscometry | – | 1.683
353.15 K, 101 kPa, Vibrating tube method | 859.3 | –
